Measured values reported in patent US10501421B1, “Substituted benzimidazoles as modulators of Ras signaling” (VANDERBILT UNIVERSITY, priority 2017, dated 2019).
Counter-ions that a name gives are not always drawn. Like-named read-outs stand apart in the source and are kept apart here.

Columns and labels:
[1] = target: Ras GEF SOS (Son of Sevenless) (Homo sapiens, UniProt Q07889); assay: SOS-mediated nucleotide exchange on Ras (BODIPY-GDP fluorescence); assay type: biochemical; settings: SOS-mediated exchange of BODIPY-GDP for GTP on Ras
Chain of Ras GEF SOS (Son of Sevenless) (P01112 1-166 partner limits assumed, one chain of several): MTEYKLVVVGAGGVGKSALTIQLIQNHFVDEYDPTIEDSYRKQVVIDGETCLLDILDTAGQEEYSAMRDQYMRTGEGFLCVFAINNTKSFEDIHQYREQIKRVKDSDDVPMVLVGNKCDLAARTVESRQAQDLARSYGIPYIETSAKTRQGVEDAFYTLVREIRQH
In short: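 Ras loaded with BODIPY-GDP was mixed in buffer with test compound, then GTP and SOS. Fluorescence change from labeled GDP/GTP exchange was followed over time, and rates came from single-exponential fits. EC50 came from a four-parameter fit of mean rate against compound concentration.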

[2] = system: H727 lung cancer cell lines (G12V K-Ras mutation); assay: Inhibition of cancer cell proliferation (CellTiter-Glo); assay type: cell-based; settings: Homo sapiens, NCI-H727, 72 h, read-out: Cell proliferation activity (H727 cancer cell line proliferation IC50)
Protocol: Compounds of the present invention were measured for their ability to kill H727 lung cancer cell lines, which contain a G12V K-Ras mutation. Cell proliferation experiments were conducted in 96-well plates. Cells were plated at 1000 cells/well, incubated overnight, followed by treatment with a dose range of compound for 3 days at 37° C. Cell proliferation was assessed using a CellTiter-Glo assay (Promega) according to the manufacturer's protocol. Data were normalized to DMSO control. IC50 values were determined using a four-parameter dose-response (variable slope) equation. These assays are performed in a manner analogous to the assay disclosed in: Burns, M. C.; Sun, Q.; Daniels, R. N.; Camper, D. V.; Kennedy, J. P.; Phan, J.; Olejniczak, E. O.; Lee, T.; Waterson, A. G.; Rossanese, O. W.; Fesik, S. W. “Approach for targeting Ras with small molecules that activate SOS-mediated nucleotide exchange” Proc. Natl. Acad. Sci. 2014; 11(9): 3401-3406. PMCID: PMC3948241.

[3] = target: T1, Son of Sevenless (SOS) (Homo sapiens, UniProt Q07889); assay: Binding to SOS, fluorescence polarization anisotropy (FPA) probe displacement; settings: displacement of FITC-conjugated probe (Example 285), affinity calculated from IC50
T1 sequence (Q07889 564-1049 limits assumed): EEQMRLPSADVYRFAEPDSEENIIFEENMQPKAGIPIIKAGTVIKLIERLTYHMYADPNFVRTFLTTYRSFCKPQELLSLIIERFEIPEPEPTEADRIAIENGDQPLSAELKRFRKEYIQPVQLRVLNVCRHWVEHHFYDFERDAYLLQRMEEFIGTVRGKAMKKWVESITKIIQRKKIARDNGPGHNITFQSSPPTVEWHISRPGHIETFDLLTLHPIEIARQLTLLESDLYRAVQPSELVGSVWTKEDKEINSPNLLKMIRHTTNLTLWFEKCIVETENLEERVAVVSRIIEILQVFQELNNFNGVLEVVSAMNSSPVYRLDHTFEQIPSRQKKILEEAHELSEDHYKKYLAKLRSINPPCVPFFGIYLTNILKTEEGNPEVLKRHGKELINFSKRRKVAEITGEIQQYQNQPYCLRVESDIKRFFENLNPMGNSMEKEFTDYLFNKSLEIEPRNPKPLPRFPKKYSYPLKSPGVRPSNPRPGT
In short: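 A FITC-conjugated probe compound was incubated with SOS in buffer, and its displacement was tracked as a change in fluorescence anisotropy across a test-compound dose range. IC50 came from a four-parameter variable-slope fit, and binding affinity was calculated from it.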

[4] = H727 cells, 3 days treatment, CellTiter-Glo

Compound | EC50 [1] [µM] | IC50 [2, 4] [µM] | Ki [3] [µM] | IC50 [2] [µM]
Cc1ccccc1-c1cccc2c1nc(N1CCNCC1)n2Cc1ccc(F)c(Cl)c1 [Example 79, 1-(3-chloro-4-fluorobenzyl)-2-(piperazin-1-yl)-4-(o-tolyl)-1H-benzo[d]imidazole trifluoroacetate] | 1 to 5 |  |  | 5 to 20
Fc1ccc(Cn2c(N3CCNCC3)nc3c(-c4ccccc4Cl)cccc32)cc1Cl [Example 84, 1-(3-chloro-4-fluorobenzyl)-4-(2-chlorophenyl)-2-(piperazin-1-yl)-1H-benzo[d]imidazole trifluoroacetate] | 1 to 5 |  |  | 1 to 5
Cc1nn(C)c(C)c1-c1cccc2c1nc(N1CCNCC1)n2Cc1ccc(F)c(Cl)c1 [Example 85, 1-(3-chloro-4-fluorobenzyl)-2-(piperazin-1-yl)-4-(1,3,5-trimethyl-1H-pyrazol-4-yl)-1H-benzo[d]imidazole trifluoroacetate] | 1 to 5 |  |  | 5 to 20
Cn1nccc1-c1cccc2c1nc(N1CCNCC1)n2Cc1ccc(F)c(Cl)c1 [Example 86, 1-(3-chloro-4-fluorobenzyl)-4-(1-methyl-1H-pyrazol-5-yl)-2-(piperazin-1-yl)-1H-benzo[d]imidazole trifluoroacetate] | 1 to 5 |  |  | 5 to 20
Fc1ccc(Cn2c(N3CCNCC3)nc3c(-c4ccc(C(F)(F)F)cc4)cccc32)cc1Cl [Example 87, 1-(3-chloro-4-fluorobenzyl)-2-(piperazin-1-yl)-4-(4-(trifluoromethyl)phenyl)-1H-benzo[d]imidazole] | 5 to 30 | 5 to 20 |  | 
COc1ccc(-c2cccc3c2nc(N2CCNCC2)n3Cc2ccc(C(F)(F)F)cc2)cc1OC [Example 91, 4-(3,4-dimethoxyphenyl)-2-(piperazin-1-yl)-1-(4-(trifluoromethyl)benzyl)-1H-benzo[d]imidazole] | 5 to 30 | 1 to 5 |  | 
Nc1ccc(-c2cccc3c2nc(N2CCNCC2)n3Cc2ccc(C(F)(F)F)cc2)cc1 [Example 92, 4-(2-(piperazin-1-yl)-1-(4-(trifluoromethyl)benzyl)-1H-benzo[d]imidazol-4-yl)aniline] | 1 to 5 | 1 to 5 |  | 
CC(C)c1ccccc1-c1cccc2c1nc(N1CCNCC1)n2Cc1ccc(C(F)(F)F)cc1 [Example 95, 4-(2-isopropylphenyl)-2-(piperazin-1-yl)-1-(4-(trifluoromethyl)benzyl)-1H-benzo[d]imidazole] | 1 to 5 | < 1 |  | 
Cc1cc(-c2cccc3c2nc(N2CCNCC2)n3Cc2ccc(C(F)(F)F)cc2)nn1C [Example 96, 4-(1,5-dimethyl-1H-pyrazol-3-yl)-2-(piperazin-1-yl)-1-(4-(trifluoromethyl)benzyl)-1H-benzo[d]imidazole] | 1 to 5 | 1 to 5 |  | 
CC(C)c1ccccc1-c1cccc2c1nc(N1CCNCC1)n2Cc1cc(F)cc(F)c1 [Example 97, 1-(3,5-difluorobenzyl)-4-(2-isopropylphenyl)-2-(piperazin-1-yl)-1H-benzo[d]imidazole] | 1 to 5 | < 1 |  | 
CCNCc1c(C)c(C)cc2c1nc(N1CCNCC1)n2Cc1cc(C)c(F)c(C)c1 [Example 131, N-((1-(4-fluoro-3,5-dimethylbenzyl)-5,6-dimethyl-2-(piperazin-1-yl)-1H-benzo[d]imidazol-4-yl)methyl)ethanamine trifluoroacetate] | 1 to 5 |  |  | < 1
Cc1cc(CNCC(C)C)c2nc(N3CCNCC3)n(Cc3cc(C)c(F)c(C)c3)c2c1 [Example 133, N-((1-(4-fluoro-3,5-dimethylbenzyl)-6-methyl-2-(piperazin-1-yl)-1H-benzo[d]imidazol-4-yl)methyl)-2-methylpropan-1-amine trifluoroacetate] | 1 to 5 |  |  | 1 to 5
Cc1cc2c(nc(N3CCNCC3)n2Cc2cc(C)c(F)c(C)c2)c(CO)c1C [Example 138, (1-(4-fluoro-3,5-dimethylbenzyl)-5,6-dimethyl-2-(piperazin-1-yl)-1H-benzo[d]imidazol-4-yl)methanol trifluoroacetate] | 1 to 5 |  |  | 5 to 20
Cc1cc(Cn2c(N3CCNCC3)nc3c(C4NCCc5c4[nH]c4ccccc54)cc(Cl)cc32)cc(C)c1F (stereo not shown) [Example 140, 1-(6-chloro-1-(4-fluoro-3,5-dimethylbenzyl)-2-(piperazin-1-yl)-1H-benzo[d]imidazol-4-yl)-2,3,4,9-tetrahydro-1H-pyrido[3,4-b]indole trifluoroacetate] | 1 to 5 |  |  | 1 to 5
Cc1cc(-c2c(C)c(C)cc3c2nc(N2CCNCC2)n3Cc2ccc(F)c(Cl)c2)n(C)n1 [Example 286, 1-(3-chloro-4-fluorobenzyl)-4-(1,3-dimethyl-1H-pyrazol-5-yl)-5,6-dimethyl-2-(piperazin-1-yl)-1H-benzo[d]imidazole] |  | 1 to 5 |  | 
Cc1cc(OCCN2CCCC2)c2nc(N3CCNCC3)n(Cc3cc(C)c(F)c(C)c3)c2c1 [Example 316, 1-(4-fluoro-3,5-dimethylbenzyl)-6-methyl-2-(piperazin-1-yl)-4-(2-(pyrrolidin-1-yl)ethoxy)-1H-benzo[d]imidazole] | < 1 |  | 1 to 5 | 

Now from value to compound, other results behind:

EC50 [1] [µM] | IC50 [2, 4] [µM] | Ki [3] [µM] | Compound | IC50 [2] [µM]
< 1 |  | < 0.5 | Cc1cc(-c2ccc(CN)cc2)c2nc(N3CCNCC3)n(Cc3cc(C)c(F)c(C)c3)c2c1 [Example 318, (4-(1-(4-fluoro-3,5-dimethylbenzyl)-6-methyl-2-(piperazin-1-yl)-1H-benzo[d]imidazol-4-yl)phenyl)methanamine] | 
< 1 |  | < 0.5 | Cc1cc(Cn2c(N3CCNCC3)nc3c(N4CCC(N)CC4)cc(Cl)cc32)cc(C)c1F [Example 319, 1-(6-chloro-1-(4-fluoro-3,5-dimethylbenzyl)-2-(piperazin-1-yl)-1H-benzo[d]imidazol-4-yl)piperidin-4-amine] | 
< 1 |  | 0.5 to 1 | Cc1cc(OCCN)c2nc(NCCN)n(Cc3cc(C)c(F)c(C)c3)c2c1 [Example 320, N^1-(4-(2-aminoethoxy)-1-(4-fluoro-3,5-dimethylbenzyl)-6-methyl-1H-benzo[d]imidazol-2-yl)ethane-1,2-diamine] | 
< 1 |  | < 0.5 | Cc1cc(N2CCN(C)CC2)c2nc(N3CCNCC3)n(Cc3cc(C)c(F)c(C)c3)c2c1 [Example 322, 1-(4-fluoro-3,5-dimethylbenzyl)-6-methyl-4-(4-methylpiperazin-1-yl)-2-(piperazin-1-yl)-1H-benzo[d]imidazole] | 
< 1 |  | 1 to 5 | Cc1ccc2nc(N3CCNCC3)n(Cc3cc(C)c(F)c(C)c3)c2c1 [Example 323, 1-(4-fluoro-3,5-dimethylbenzyl)-6-methyl-2-(piperazin-1-yl)-1H-benzo[d]imidazole] | 
< 1 |  | 0.5 to 1 | Cc1cc(OC2CCNC2)c2nc(N3CCNCC3)n(Cc3cc(C)c(F)c(C)c3)c2c1 (stereo not shown) [Example 327, 1-(4-fluoro-3,5-dimethylbenzyl)-6-methyl-2-(piperazin-1-yl)-4-(pyrrolidin-3-yloxy)-1H-benzo[d]imidazole] | 
< 1 |  | 0.5 to 1 | Cc1cc(OCC2CCNCC2)c2nc(NCCN)n(Cc3cc(C)c(F)c(C)c3)c2c1 [Example 330, N^1-(1-(4-fluoro-3,5-dimethylbenzyl)-6-methyl-4-(piperidin-4-ylmethoxy)-1H-benzo[d]imidazol-2-yl)ethane-1,2-diamine] | 
< 1 |  | 0.5 to 1 | Cc1cc(OCCN2CCN(C)CC2)c2nc(NCCN)n(Cc3cc(C)c(F)c(C)c3)c2c1 [Example 331, N^1-(1-(4-fluoro-3,5-dimethylbenzyl)-6-methyl-4-(2-(4-methylpiperazin-1-yl)ethoxy)-1H-benzo[d]imidazol-2-yl)ethane-1,2-diamine] | 
5 to 30 |  | > 5 | Cc1cc2nc(N3CCNC(=O)C3)n(Cc3cc(C)c(F)c(C)c3)c2cc1C [Example 332, 4-(1-(4-fluoro-3,5-dimethylbenzyl)-5,6-dimethyl-1H-benzo[d]imidazol-2-yl)piperazin-2-one] | 
